From patent JPH1029937A, “メフェナム酸水溶液製剤” (KOBAYASHI SEIYAKU KOGYO KK, priority 1996, dated 1997)

Legend:
[1] = in words, background statement; cited from earlier work
[2] = Solubility of mefenamic acid in water and various aqueous solutions; type: physicochemical; conditions: for solubility: aqueous solution containing polyvinylpyrrolidone and basic substance

For `Cc1cccc(Nc2ccccc2C(=O)O)c1C` [メフェナム酸, N−2,3−キシリルアントラニル酸], the solubility in water [1] is listed as “水に極めて溶けにくく”, the solubility [2] is listed as “高い溶解性を示し” and the solubility ([2]; with nonionic surfactant of HLB 14-15 added) is listed as “溶解性が飛躍的に向上する”. For the same molecule, the solubility and stability ([2]; aqueous solution of polyvinylpyrrolidone and surfactant mixture, approximately pH 7.0-8.0) was “良好な溶解性と安定性を示す”.
